Among the data in patent publication US20240327334A1, “Covalent Inhibitors As Antiviral Agents” (Enanta Pharmaceuticals, Inc., priority 2022, published 2024) are IC50 and EC50 values, retold here.

Test [1] deals with SARS-CoV-2 Papain-like (PLpro) protease (Severe acute respiratory syndrome coronavirus 2, UniProt P0DTD1). The experiment in a line: SARS-CoV-2 Papain-like (PLpro) protease biochemical enzyme inhibition assay (ubiquitin-fluorophore substrate, Ub-R110). The following applies: Ub-R110 substrate; run in duplicate; read-out: PLpro IC50.
The test system of test [2] is SARS-CoV-2 replicon. Put plainly: microbe, parasite or virus in culture. Type of test: cell-based. The following applies: Severe acute respiratory syndrome coronavirus 2, Huh-7.

The structures appear in SMILES notation.

Turning to `CN1CCC1COc1ccc(CNC(=O)C(=O)NCC#N)c(C(=O)NC2(c3cccc4ccccc34)CC2)c1` (stereo not shown) [Example 331], the IC50 in test [1] was less than 0.1 µM. This molecule also gave an EC50 in test [2] of less than 1 µM.
For `C[C@@H](C#Cc1nccs1)NC(=O)C(=O)NCc1ccccc1C(=O)NC1(c2ccc3nn(C)cc3c2F)CC1` [Example 333], the IC50 in test [1] is less than 0.1 µM. In addition, the EC50 in test [2] is less than 1 µM.
With `COc1cc(C2(NC(=O)c3ccccc3CNC(=O)C(=O)N[C@@H](C)C#Cc3ccc(C#N)cc3F)CC2)cc2cn(C3CC3)nc12` [Example 334], the IC50 in test [1] is less than 0.1 µM. The molecule further gave a half-maximal effective concentration (EC50) in test [2] of less than 1 µM.
For `C[C@@H](C#Cc1nccs1)NC(=O)C(=O)NCc1ccccc1C(=O)NC1(c2cc(Cl)c3nn(C4CC4)cc3c2)CC1` [Example 335], the half-maximal inhibitory concentration (IC50) in test [1] was less than 0.1 µM. The same molecule showed an EC50 in test [2] of less than 1 µM.
Consider `COc1cc(C2(NC(=O)c3ccccc3CNC(=O)C(=O)N[C@@H](C)C#Cc3nccs3)CC2)cc2cn(C3CC3)nc12` [Example 336], for which, in test [1], the IC50 is less than 0.1 µM. In addition, the EC50 in test [2] is less than 1 µM.
For `Cn1cc2cc(C3(NC(=O)c4ccccc4CNC(=O)C(=O)NCC#Cc4nccs4)CC3)ccc2n1` [Example 337], the IC50 in test [1] was less than 0.1 µM. Also, in test [2], the EC50 is less than 1 µM.
On to `C#CCNC(=O)C(=O)NCc1ccccc1C(=O)NC1(c2ccc3nn(C)cc3c2)CC1` [Example 338], for which, in test [1], the IC50 was less than 0.1 µM. Further, in test [2], the half-maximal effective concentration (EC50) is less than 1 µM.
Take `Cn1cc2cc(C3(NC(=O)c4ccccc4CNC(=O)C(=O)NCC#N)CC3)ccc2n1` [Example 341]: the IC50 in test [1] lay within 0.1 to 1 µM. The molecule further yielded an EC50 in test [2] of more than 10 µM.
In the same order, the values of `C#CCNC(=O)C(=O)NCc1ccccc1C(=O)NC1(c2cccc3nn(C)cc23)CC1` [Example 342] are less than 0.1 µM and less than 1 µM.
As to `C#CCNC(=O)C(=O)NCc1ccccc1C(=O)NC1(c2cc(OC)c3nn(C4CC4)cc3c2)CC1` [Example 343], the IC50 in test [1] was less than 0.1 µM. In test [2], the EC50 was less than 1 µM.
With `C#CCNC(=O)C(=O)NCc1ccccc1C(=O)NC1(c2ccc3c(cnn3C)c2)CC1` [Example 344], in test [1], the IC50 was less than 0.1 µM. The same molecule showed an EC50 in test [2] of less than 1 µM.
As to `Cn1ncc2cc(C3(NC(=O)c4ccccc4CNC(=O)C(=O)NCC#Cc4nccs4)CC3)ccc21` [Example 345], the half-inhibitory concentration (IC50) in test [1] is less than 0.1 µM. Further, the half-maximal effective concentration (EC50) in test [2] is less than 1 µM.
For `C[C@@H](C#Cc1nccs1)NC(=O)C(=O)NCc1ccccc1C(=O)NC1(c2ccc3c(cnn3C)c2)CC1` [Example 346] the same measures were less than 0.1 µM and less than 1 µM.
In the case of `N#CCNC(=O)C(=O)NCc1ccccc1C(=O)NC1(c2cc(-c3cccs3)cc3ccccc23)CC1` [Example 347], the IC50 in test [1] was less than 0.1 µM. Besides, in test [2], the EC50 was less than 1 µM.
For `COc1ccc2cccc(C3(NC(=O)c4ccccc4CNC(=O)C(=O)NCC#N)CC3)c2c1` [Example 348] the same measures were less than 0.1 µM and 1 to 10 µM.
In the case of `N#CCNC(=O)C(=O)NCc1ccccc1C(=O)NC1(c2cc(-c3cncs3)cc3ccccc23)CC1` [Example 349], the IC50 in test [1] is less than 0.1 µM. This molecule returned an EC50 in test [2] of less than 1 µM.
For `N#CCNC(=O)C(=O)NCc1ccccc1C(=O)NC1(c2cc(-c3ccc(CO)s3)cc3ccccc23)CC1` [Example 350] the same measures were less than 0.1 µM and less than 1 µM.
For the molecule `COc1ccc(-c2cc(C3(NC(=O)c4ccccc4CNC(=O)C(=O)NCC#N)CC3)c3ccccc3c2)s1` [Example 351], the IC50 in test [1] was less than 0.1 µM. This molecule also had an EC50 in test [2] of less than 1 µM.
For `COCc1ccc(-c2cc(C3(NC(=O)c4ccccc4CNC(=O)C(=O)NCC#N)CC3)c3ccccc3c2)s1` [Example 352], the IC50 in test [1] is less than 0.1 µM. Besides, the EC50 in test [2] is less than 1 µM.
For the molecule `CC(C)(O)Cn1cc(-c2cc(C3(NC(=O)c4ccccc4CNC(=O)C(=O)NCC#N)CC3)c3ccccc3c2)cn1` [Example 353], the IC50 in test [1] is less than 0.1 µM. The EC50 in test [2] is less than 1 µM.
Consider `CC(C)(O)c1ccc(-c2cc(C3(NC(=O)c4ccccc4CNC(=O)C(=O)NCC#N)CC3)c3ccccc3c2)s1` [Example 354], for which, in test [1], the IC50 is less than 0.1 µM. Besides, in test [2], the concentration giving a half-maximal response (EC50) was less than 1 µM.
Turning to `CN(C)S(=O)(=O)n1cc(-c2cc(C3(NC(=O)c4ccccc4CNC(=O)C(=O)NCC#N)CC3)c3ccccc3c2)cn1` [Example 355], the IC50 in test [1] is less than 0.1 µM. Also, the EC50 in test [2] was less than 1 µM.
Regarding `CS(=O)(=O)n1cc(-c2cc(C3(NC(=O)c4ccccc4CNC(=O)C(=O)NCC#N)CC3)c3ccccc3c2)cn1` [Example 356], the IC50 in test [1] was less than 0.1 µM. Also, the EC50 in test [2] lay within 1 to 10 µM.
As for `N#CCNC(=O)C(=O)NCc1ccccc1C(=O)NC1(c2cc(-c3cnn(C4CC4)c3)cc3ccccc23)CC1` [Example 357], the IC50 in test [1] is less than 0.1 µM. In test [2], this molecule yielded an EC50 of less than 1 µM.
Turning to `COC(=O)/C=C/CNC(=O)C(=O)NCc1cc(F)c(F)cc1C(=O)N[C@H](C)c1cccc2ccccc12` [Example 362], the IC50 in test [1] was less than 0.1 µM. Further, the half-maximal effective concentration (EC50) in test [2] was less than 1 µM.
In the same order, the values of `C[C@@H](NC(=O)c1cc(F)c(F)cc1CNC(=O)C(=O)NCC#N)c1cccc2ccccc12` [Example 363] are 0.1 to 1 µM and less than 1 µM.
For `N#CCNC(=O)C(=O)NCc1cnccc1C(=O)NC1(c2cccc3ccccc23)CC1` [Example 366], in test [1], the IC50 is less than 0.1 µM. For the same molecule, the EC50 in test [2] lay within 1 to 10 µM.
In the case of `N#CCNC(=O)C(=O)NCc1ccccc1C(=O)NC1(c2ccc3sc4ccccc4c3c2)CC1` [Example 369], the IC50 in test [1] is less than 0.1 µM. This molecule came in with an EC50 in test [2] of 1 to 10 µM.
In the case of `N#CCNC(=O)C(=O)NCc1ccccc1C(=O)NC1(c2cccc(C(F)(F)F)c2Cl)CC1` [Example 370], the concentration for half-maximal inhibition (IC50) in test [1] was 0.1 to 1 µM. In test [2], the EC50 lay in the range of 1 to 10 µM.
With `N#CCNC(=O)C(=O)NCc1ccccc1C(=O)NC1(c2cccc(-c3ccc(F)cc3)c2Cl)CC1` [Example 380], in test [1], the IC50 was 0.1 to 1 µM. Moreover, the EC50 in test [2] is more than 10 µM.
Take `C#CCNC(=O)C(=O)NCc1ccccc1C(=O)NC1(c2cccc(-c3cnn(C4CC4)c3)c2Cl)CC1` [Example 381]: the 50% inhibitory concentration (IC50) in test [1] is less than 0.1 µM. Further, the EC50 in test [2] was less than 1 µM.
In the same order, the values of `N#CCNC(=O)C(=O)NCc1ccccc1C(=O)NC1(c2cccc(-c3cccs3)c2Cl)CC1` [Example 382] are less than 0.1 µM and 1 to 10 µM.
For `C#CCNC(=O)C(=O)NCc1ccccc1C(=O)NC1(c2cccc(-c3cccs3)c2Cl)CC1` [Example 383] the same measures were less than 0.1 µM and less than 1 µM.
With `C#CCNC(=O)C(=O)NCc1ccccc1C(=O)NC1(c2cc(-c3cnn(C4CC4)c3)ccc2Cl)CC1` [Example 384], in test [1], the 50% inhibitory concentration (IC50) was less than 0.1 µM. This molecule also gave an EC50 in test [2] of less than 1 µM.
For `O=C(NCC#Cc1nccs1)C(=O)NCc1ccccc1C(=O)NC1(c2cccc(-c3cnn(C4CC4)c3)c2Cl)CC1` [Example 385] the same measures were less than 0.1 µM and less than 1 µM.
Take `N#CCNC(=O)C(=O)NCc1ccccc1C(=O)NC1(c2cccc3nc(Cl)ccc23)CC1` [Example 386]: the half-inhibitory concentration (IC50) in test [1] is less than 0.1 µM. Further, the EC50 in test [2] was less than 1 µM.
For `C#CCNC(=O)C(=O)NCc1ccccc1C(=O)NC1(c2cccc3nc(Cl)ccc23)CC1` [Example 387], in test [1], the IC50 is less than 0.1 µM. The same molecule showed a 50% effective concentration (EC50) in test [2] of less than 1 µM.
Turning to `O=C(NCC#Cc1nccs1)C(=O)NCc1ccccc1C(=O)NC1(c2ccnc3ccccc23)CC1` [Example 392], in test [1], the IC50 is less than 0.1 µM. The same molecule showed a concentration giving a half-maximal response (EC50) in test [2] of 1 to 10 µM.
